According to US11738022B2, “Methods for inducing pupil dilation” (THE REGENTS OF THE UNIVERSITY OF COLORADO, A BODY CORPORATE, priority 2017, dated 2023):
Counter-ions that a name gives are not always drawn.

Experiments:
[1] = system: pupil; test: Pupil dilation measured with Neuroptics pupillometer after α-2 agonist pre-treatment and/or phenylephrine; assay type: in vivo, human; conditions: for Pupil size, Treated eye / Surgical Work area, Treated eye / Pupil size, Non-treated eye / Surgical Work area, Non-treated eye: photopic conditions (1258.925 lux) after dilation with phenylephrine 10%; for Pupil size, Non-treated eye / Surgical Work area, Non-treated eye: eye without pre-treatment
Procedure: Dilation medication used was Phenylephrine hydrochloride 10% (Akorn, Inc). Pupillometer used was a Neuroptics DP-2000 Binocular Pupillometer).
Dilation using phenylephrine hydrochloride 10% was conducted in both eyes of the test subject to use as a control against the other compounds being tested.
After this, dilation using phenylephrine hydrochloride 2.5% or phenylephrine hydrochloride 10% was conducted to investigate the effects of the compound on pupil dilation.
Apracionidine 0.5% was administered in the right eye of the test subject three (3) times a day for 4 days. After this, dilation using phenylephrine hydrochloride 10% was conducted to investigate the effects of the compound on pupil dilation.
After this, dilation using phenylephrine hydrochloride 10% was conducted to investigate the effects of the compound on pupil dilation.
A washout period of multiple months was undertaken in between each experiment.
Pupil measurements were obtained using a Neuroptics pupillometer. Parameters were as follows: Scotopic conditions for 1 second, followed by photopic conditions for 4 seconds (1258.925 lux), followed by scotopic conditions for 10 seconds. This allowed for investigation of scotopic pupil size, photopic pupil size, and scotopic pupil size recovery after the light stimulus concluded.
The pupils of the subject's pretreated right eye and untreated control left eye were then measured under both scotopic and photopic conditions for baseline measurements (FIG. 6A). Photopic conditions consisted of a 4 second window where a light was shining in both eyes simultaneously. […]
The experiment was repeated at a higher dosage wherein the subject was administered a second ophthalmic formulation containing 10% phenylephrine to both eyes. 30 minutes after instillation of 10% phenylephrine, the pupils of the subject were then measured under both scotopic and photopic conditions (FIG. 6C). […] Because the area of a circle is dependent on the radius squared (area of a circle=πr^2), the increase in area that is created from a increasing the pupil dilation size is not linear.
The results were then compared.

[2] = system: α receptors (α2:α1); conditions: affinity ratio; cited from earlier work
[3] = phenylephrine hydrochloride 10% both eyes, no pre-treatment (FIG. 5B)
[4] = after pre-treatment of right eye only, 3 times a day for 4 days, before phenylephrine
[5] = after pre-treatment of right eye only, 3 times a day for 4 days, before phenylephrine, left eye not treated
[6] = dilation pre and post treatment with α 2 agonist: treated eye vs control measurements of same eye
[7] = non-treated eye dilation compared to treated eye dilation
[8] = right eye pre-treated 3 times a day for 4 days, then phenylephrine 10% both eyes
[9] = right eye pre-treated 3 times a day for 4 days, then phenylephrine 10% both eyes, left eye not pre-treated

CNC[C@H](O)c1cccc(O)c1 [Phenylephrine hydrochloride 10%, phenylephrine]
CH LPupil Ave [1, 3]: 58% | CH LStim Ave [1, 3]: 57% | CH Left [1, 3]: 58% | CH RPupil Ave [1, 3]: 56% | CH RStim Ave [1, 3]: 57% | CH Right [1, 3]: 56% | CLAT LPupil Ave [1, 3]: 0.24 s | CLAT LStim Ave [1, 3]: 0.22 s | CLAT Left [1, 3]: 0.24 s | CLAT RPupil Ave [1, 3]: 0.20 s | CLAT RStim Ave [1, 3]: 0.22 s | CLAT Right [1, 3]: 0.20 s | DELTA LStim Ave [1, 3]: 4.63 mm | DELTA Left [1, 3]: 4.65 mm | DELTA RPupil Ave [1, 3]: 4.62 mm | DELTA RStim Ave [1, 3]: 4.63 mm | DV LStim Ave [1, 3]: 1.43 mm/s | DV Left [1, 3]: 1.40 mm/s | DV RPupil Ave [1, 3]: 1.45 mm/s | DV RStim Ave [1, 3]: 1.43 mm/s | DV Right [1, 3]: 1.45 mm/s | MCV LStim Ave [1, 3]: 4.62 mm/s | MCV Left [1, 3]: 4.78 mm/s | MCV RPupil Ave [1, 3]: 4.46 mm/s | MCV RStim Ave [1, 3]: 4.62 mm/s | Max LStim Ave [1, 3]: 8.11 mm | Max Left [1, 3]: 8.01 mm | Max RStim Ave [1, 3]: 8.11 mm | Max Right [1, 3]: 8.21 mm | Min LStim Ave [1, 3]: 3.48 mm | Min Left [1, 3]: 3.36 mm | Min RPupil Ave [1, 3]: 3.59 mm | Min RStim Ave [1, 3]: 3.48 mm | Min Right [1, 3]: 3.59 mm | Pupil size, Treated eye [1]: 3.59 mm | Surgical Work area, Treated eye [1]: 10.12 mm^2 | Pupil size, Non-treated eye [1]: 3.36 mm | Surgical Work area, Non-treated eye [1]: 8.862 mm^2

Cc1cccc([C@H](C)c2cnc[nH]2)c1C [Dexmedetomidine, dexmedetomidine]
increase of surgical work area compared to the pre-treatment control dilation amount in the same eye ([1]; after dilation with phenylephrine hydrochloride 10%): +220% | CH LStim Ave [1, 4]: 64% | CH RPupil Ave [1, 4]: 64% | CH RStim Ave [1, 4]: 64% | CH Right [1, 4]: 64% | CLAT LStim Ave [1, 4]: 0.36 s | CLAT RPupil Ave [1, 4]: 0.38 s | CLAT RStim Ave [1, 4]: 0.36 s | CLAT Right [1, 4]: 0.38 s | DELTA LStim Ave [1, 4]: 4.01 mm | DELTA RPupil Ave [1, 4]: 4.19 mm | DELTA RStim Ave [1, 4]: 4.01 mm | DV LStim Ave [1, 4]: 0.95 mm/s | DV RPupil Ave [1, 4]: 0.96 mm/s | DV RStim Ave [1, 4]: 0.95 mm/s | DV Right [1, 4]: 0.96 mm/s | MCV LStim Ave [1, 4]: 5.42 mm/s | MCV RPupil Ave [1, 4]: 5.84 mm/s | MCV RStim Ave [1, 4]: 5.42 mm/s | Max LStim Ave [1, 4]: 6.30 mm | Max RStim Ave [1, 4]: 6.30 mm | Max Right [1, 4]: 6.57 mm | Min LStim Ave [1, 4]: 2.29 mm | Min RPupil Ave [1, 4]: 2.38 mm | Min RStim Ave [1, 4]: 2.29 mm | Min Right [1, 4]: 2.38 mm | CH LPupil Ave [1, 5]: 64% | CH Left [1, 5]: 64% | CLAT LPupil Ave [1, 5]: 0.34 s | CLAT Left [1, 5]: 0.34 s | DELTA Left [1, 5]: 3.83 mm | DV Left [1, 5]: 0.94 mm/s | MCV Left [1, 5]: 4.99 mm/s | Max Left [1, 5]: 6.03 mm | Min Left [1, 5]: 2.20 mm | Pupil size change (%) [1, 6]: +78.83% | Surgical work area change (%) [1, 6]: +219.8% | Pupil size change (%) [1, 7]: +74.46% | Surgical work area (%) [1, 7]: +204.4% | Pupil size, Treated eye [1]: 6.42 mm | Surgical Work area, Treated eye [1]: 32.35 mm^2 | Pupil size, Non-treated eye [1]: 3.68 mm | Surgical Work area, Non-treated eye [1]: 10.63 mm^2 | CH LStim Ave [1, 8]: 46% | CH RPupil Ave [1, 8]: 34% | CH RStim Ave [1, 8]: 46% | CH Right [1, 8]: 34% | CLAT LStim Ave [1, 8]: 0.20 s | CLAT RPupil Ave [1, 8]: 0.16 s | CLAT RStim Ave [1, 8]: 0.20 s | CLAT Right [1, 8]: 0.16 s | DELTA LStim Ave [1, 8]: 4.22 mm | DELTA RPupil Ave [1, 8]: 3.31 mm | DELTA RStim Ave [1, 8]: 4.22 mm | DV LStim Ave [1, 8]: 0.94 mm/s | DV RPupil Ave [1, 8]: 0.80 mm/s | DV RStim Ave [1, 8]: 0.94 mm/s | DV Right [1, 8]: 0.80 mm/s | MCV LStim Ave [1, 8]: 3.24 mm/s | MCV RPupil Ave [1, 8]: 2.49 mm/s | MCV RStim Ave [1, 8]: 3.24 mm/s | Max LStim Ave [1, 8]: 9.27 mm | Max RStim Ave [1, 8]: 9.27 mm | Max Right [1, 8]: 9.73 mm | Min LStim Ave [1, 8]: 5.05 mm | Min RPupil Ave [1, 8]: 6.42 mm | Min RStim Ave [1, 8]: 5.05 mm | Min Right [1, 8]: 6.42 mm | CH LPupil Ave [1, 9]: 58% | CH Left [1, 9]: 58% | CLAT LPupil Ave [1, 9]: 0.24 s | CLAT Left [1, 9]: 0.24 s | DELTA Left [1, 9]: 5.13 mm | DV Left [1, 9]: 1.08 mm/s | MCV Left [1, 9]: 4.00 mm/s | Max Left [1, 9]: 8.81 mm | Min Left [1, 9]: 3.68 mm | α2:α1 affinity [2]: 1620
